The test system of series [1] is freshly isolated mouse B cells. The series can be described thus: Spontaneous apoptosis by hypo-diploid nuclei PI staining, primary B cells. The format is cell-based. The note with it: 1 or 100 μg/ml in ethanol solution. On the procedure:
Apoptosis was measured by FACS analysis with a hypo-diploid nuclei propidium iodide (PI) staining of freshly isolated mouse B cells treated with amino-phenyl-acetic acid octadec-(Z)-9-enyl ester in ethanol solution. FIGS. 5A-5C: L-12 cells treated with 0, 1 or 100 μg/ml of amino-phenyl-acetic acid octadec-(Z)-9-enyl ester, respectively; FIGS. 5D-5F: L-12 cells treated with 0, 1 or 100 μg/ml of the control reagent 4-methyl-piperazino-acetic acid ethyl ester, respectively; and FIGS. 5G-5I: L-12 cells treated with an ethanol volume corresponding to 0, 1 or to 100 μg/ml of amino-phenyl-acetic acid octadec-(Z)-9-enyl ester in ethanol solution, respectively.
B or T-cell apoptosis was detected by flow cytometry. […] The cells were then subjected to flow cytometric analysis; for each sample 10,000 were collected and cell-cycle distribution was analyzed according to relative DNA content (PI staining). […] The cells were then collected, stained by APO-DIRECT TUNNEL kit (Phnxflow, CITY, Calif., USA); mitochondrial potential was measured by DePsipher (R&D Systems, Minneapolis, Minn.) according to the manufacturer's procedure. Intracellular caspase activity was measured by Apostat kit (R&D Systems), according to the manufacturer's procedure. The cells were analyzed by Flow cytometry using FACSort (Becton Dickinson) and CellQuest software (Becton Dickinson). […]

Series [2] in a line: Light scattering at 90 degrees of aggregates in PBS with 0-20% ethanol. The format is physicochemical. Conditions: 10 μM in PBS; for intensity of light scattering, relative scale: 90 degrees, 560 nm. Details: key to intensity of light scattering, relative scale: relative light-scattering intensity; 0% ethanol = 100. On the procedure:
Light scattering at 90 degrees can be used to assess the amount of aggregates in a solution. Higher readings are indicative of a higher degree of aggregation, while lower readings are indicative of disintegration of aggregates into monomers. A series of 10 μM amino-phenyl-acetic acid octadec-(Z)-9-enyl ester solutions was prepared in PBS containing ethanol concentrations of 0-20%. The intensity of light scattering of each solution was recorded at 90 degrees with a 560 nm beam in a Perkin Elmer fluorimeter. The results, presented in a relative scale with respect to the percent ethanol (% ethanol indicated in brackets), were as follows: 100 (0); 98 (0.5); 90 (1): 75 (2); 45(3); 26 (4); 10 (5); 8 (10); 6 (20).

Consider `CCCCCCCC/C=C\CCCCCCCCOC(=O)C(N)c1ccccc1` (centres unmarked) [amino-phenyl-acetic acid octadec-(Z)-9-enyl ester], for which the “spontaneous apoptosis / cell-cycle of primary B cells” value in series [1] is “partially protected from the spontaneous apoptosis”. Moreover, in series [2], the “ethanol concentration in whose presence micellar aggregates disintegrate” value was “above 4 % ethanol”. Also, the “intensity of light scattering, relative scale” value in series [2] (0% ethanol) amounted to 100; in series [2] (0.5% ethanol) it was 98; in series [2] (1% ethanol), 90; in series [2] (2% ethanol) it was 75; in series [2] (3% ethanol) it was 45; in series [2] (4% ethanol) it was 26. Also, the “intensity of light scattering, relative scale” value in series [2] (5% ethanol) came to 10; in series [2] (10% ethanol), 8; in series [2] (20% ethanol) it was 6.

These data come from US20150157588A1, “Pharmaceutical Composition Comprising Amino-Phenyl-Acetic Acid Octadec-(Z)-9-enyl Ester and Use Thereof for Treating Tumors” (Yeda Research and Development Co., Ltd., priority 2012, published 2015).
